Legend:
[1] = system: T47D cells; assay: Inhibitory effects on the proliferation of T47D cells (CellTiter-Glo); type: cell-based; conditions: Homo sapiens, 168 h, 7 days
Procedure: Experimental Example 3: Experiment of Inhibitory Effects on the Proliferation of T47D Cells
T47D cells (ATCC. #HTB-133) were diluted with RPMI 1640 (Gibco #22400-089) containing 10% FBS (Hyclone #SH30084.03), seeded in 96-well plate (Biosharp #BS-MP-96W) at 1000 cells/well, and then cultured for 24 h. Then, gradiently diluted compounds were added (starting at a final concentration of 10 μM, 3-fold dilution, 9 dose concentrations), and the final volume was adjusted to 150 μL/well. The plate was incubated at 37° C. under […] for 7 days. After the cultivation was completed, CellTiter-Glo reagent (Promega #G7573) was added at 75 μL/well, and then the plate was further incubated at 25° C. for 10 min. After that, the chemiluminescence value was read using an instrument.
The results are shown in the T47D IC50 column in Table 2.

[2] = Pharmacokinetics in rats; type: in vivo, SD rats; conditions: rat; for AUC / half-life / clearance / Vd: male, SD, plasma; for Vd: read-out: VSS
Procedure: Experimental Example 4: The Pharmacokinetics of the Compound According to the Present Invention in Rats
(§1) 9 healthy adult male SD rats (three for each administration route of each compound) were fasted overnight (>12 h) before gavage, with free access to water; 4 hours after administration, rats could take food, and were administered via tail vein injection and gastric lavage, respectively. At different time points, intravenous blood sample was collected and anti-coagulated, wherein the anticoagulant was EDTA-K2 (the sample was placed in an ice bath after blood collection). The plasma was separated by centrifugation at 4° C. and 6000 g for 5 min, and stored at −70° C. for testing. The plasma concentration of compounds was determined by LC-MS/MS method.
(§2) The plasma concentration of compound at all time points was used to calculate the main pharmacokinetic parameters with Winnolin 8.3 non-compartmental model.
(§3) The area under the concentration-time curve AUCall value: calculated using the trapezoidal method; AUCinf=AUCall+Ct/ke, Ct is the plasma concentration at the last measurable time point, and ke is the elimination rate constant;
The elimination half life t1/2=0.693/ke;
(§4) The clearance rate CL=D/AUCinf (D is the administration dosage);
The volume of distribution at steady state Vss=CL×MRT, The mean retention time MRT=AUMC/AUC;

[3] = system: MCF-10A cells; assay: Inhibitory effects on the proliferation of MCF-10A cells (CCK8); type: cell-based; conditions: Homo sapiens, 144 h, 6 days
Procedure: Experimental Example 2: Experiment of Inhibitory Effects on the Proliferation of MCF-10A Cells
MCF-10A cells (Cobioer Bio. #CBP60419MCF) were diluted with complete medium (Cobioer Bio. #CBP60419), seeded in 96-well plate (Corning #3599) at 500 cells/well, and then cultured for 24 h. Then, gradiently diluted compounds were added (starting at a final concentration of 10 μM, 3-fold dilution, 9 dose concentrations), and the final volume was adjusted to 100 μL/well. The plate was incubated at 37° C. under 5% CO2 for 6 days. After the cultivation was completed, CCK8 reagent (Signalway Antibody Bio. #CP002) was added at 10 μL/well, and then the plate was further incubated at 37° C. under 5% CO2 for 2-3 hours. The OD450 nm value was obtained by a microplate reader.
The results are shown in the MCF-OA IC50 column in Table 2.

[4] = Pharmacokinetics in beagle dogs; type: in vivo; conditions: beagle dog
Procedure: Experimental Example 5: The Pharmacokinetics of the Compound According to the Present Invention in Beagle Dogs
as §1, with “beagle dogs” for “SD rats”, “forelimb venous” for “intravenous”, “3200” for “4° C. and 6000”, “10” for “5”
as §2, §3, §4
The volume of distribution at steady state Vss=CL×MRT. The mean retention time MRT=AUMC/AUC;

[5] = iv (tail vein injection), 1 mg/kg
[6] = male, plasma, po, ig (intragastric), 3 mg/kg
[7] = male, plasma, po, ig (intragastric), 10 mg/kg

Row | SMILES | IC50 [1] | AUC ([2]; po, ig (intragastric), 3 mg/kg) | half-life ([2]; po, ig (intragastric), 3 mg/kg) | AUC [2, 5] | clearance [2, 5] | half-life [2, 5] | Vd [2, 5] | F ([2]; ig (intragastric), 3 mg/kg) | IC50 [3] | F ([4]; ig (intragastric), 3 mg/kg) | F ([4]; ig (intragastric), 10 mg/kg) | AUC [4, 6] | half-life [4, 6] | AUC [4, 7] | half-life [4, 7] | AUC ([4]; male, plasma, iv, 1 mg/kg) | clearance ([4]; male, plasma, iv, 1 mg/kg) | half-life ([4]; male, plasma, iv, 1 mg/kg) | Vd ([4]; male, plasma, iv, 1 mg/kg, read-out: VSS)
1 | Cc1cc([C@@H](C)Nc2ccc(Cl)nc2C(=O)O)c2nc(-c3ccc(F)cc3)n(C)c(=O)c2c1 [Compound 65] | < 1 µM | 3430 ng·h/mL | 1.34 h | 1000 ng·h/mL | 16.3 mL/min/kg | 2.95 h | 1.71 L/kg | 79.6% | > 5 µM | 27.1% | 24.9% | 760 ng·h/mL | 2.13 h | 2370 ng·h/mL | 4.19 h | 954 ng·h/mL | 17.4 mL/min/kg | 2.1 h | 0.828 L/kg
2 | Cc1cc([C@@H](C)Nc2ccc(Cl)nc2C(=O)O)c2nc(-c3ccccc3)n(C)c(=O)c2c1 [Compound 115] | > 5 µM | 2360 ng·h/mL | 3.83 h | 978 ng·h/mL | 17.5 mL/min/kg | 3.79 h | 2.14 L/kg | 80.3% | > 5 µM |  |  |  |  |  |  |  |  |  | 
